Results as given in article PMC3502340, “Agglutinating Activity and Structural Characterization of Scalarin, the Major Egg Protein of the Snail Pomacea scalaris (d’Orbigny, 1832)” (PLoS ONE, 2012).

Tested on: T1, scalarin (PsSC)
T1 construct: native, purified from newly laid egg clutches (ultracentrifugation, size exclusion); 380 kDa glycosylated carotenoprotein oligomer of 35, 28 and 24 kDa subunits
Assay: inhibition of rabbit erythrocyte hemagglutination (titre)
Type: cell-based, Pomacea scalaris
Conditions: 200000 µM, TBS pH 7.4, 37 °C, 1 h preincubation, 2% rabbit erythrocytes
From the text: inhibition of rabbit erythrocyte hemagglutination (titre) on scalarin (PsSC)

CC(=O)N[C@H]1C(O)O[C@H](CO)[C@H](O)[C@@H]1O (stereo partly drawn) [N-acetyl-D-galactosamine]
% Inhibition: 50.0%

N[C@H]1C(O)O[C@H](CO)[C@@H](O)[C@@H]1O (stereo partly drawn) [glucosamine]
% Inhibition: 99.6%

N[C@H]1C(O)O[C@H](CO)[C@H](O)[C@@H]1O (stereo partly drawn) [galactosamine]
% Inhibition (text prints 99.99%): 99.9%
